The values that follow come from patent US12281093B2, “3-(1,2,3,6-tetrahydropyridin-2-YL) pyridine glutarate or a pharmaceutically acceptable solvate thereof” (PHILIP MORRIS PRODUCTS S.A., priority 2018, dated 2025).

A short description of series [1]: Stability assessment at accelerated conditions (40° C./75% RH, 7 days): visual, TGA, XRPD. The format is physicochemical. The procedure:
Anatabine glutarate was analyzed at T=0, and an aliquot subsequently stored in a glass vial with a screw cap lid at accelerated conditions (40° C./75% RH) in an incubator for 7 days prior to further analysis. […] The stored sample was also assessed at T=0 and again post T=7 days using TGA, XRPD and HPLC-UV.
Powder X-ray diffraction (XRPD) was performed on Bruker D8 Advance XRPD using 9 mm cavity and flat plate sample holders. Samples were prepared by coating them onto sample holders fitted with a zero background silicon wafer (5 1 0). Analysis was performed using a Cu Kα X-Ray source which operated at 40 kV at 40 mA and a Lynx Eye TM detector, all samples were analyzed over the range 2-40° 20.
Thermogravimetric Analysis (TGA) was performed on Perkin Elmer PYRIS 1 TGA using 40 μL aluminum pans (vented) in ceramic crucibles. The samples were heated from room temperature to 400° C. at 10° C./min (unless otherwise stated) under a stream of nitrogen gas.

Series [2] can be described thus: Dynamic vapor sorption (DVS) testing. The format is physicochemical. The note with it: for mass gain between the starting weight and the end weight: DVS double cycle, final mass vs starting mass. The procedure: Anatabine glutarate (20 mg) was dispensed directly into a pre-weighed sample pan and transferred to the instrument (DVS1 Advantage). Double cycle 0-90-O-90-0% RH method with 10% RH steps was applied.
Dynamic vapor sorption (DVS) was performed on SMS DVS dynamic vapor sorption instrument using DVS control software v1.0.6.0. 30 mg of sample was weighed in stainless steel DVS basket before submitting for analysis. The samples were analyzed over the range of 0-90/RH with a maximum time of 6 hours per humidity stage. Each sample was exposed to a double cycle. Analysis was performed as a weight percent change from 0-90% RH with isothermal plots also being examined. XRPD analysis of all samples was performed post-DVS.
This indicates a gain of moisture.
This was further confirmed by an isotherm plot of this sample.
When comparing X-ray diffraction patterns of the sample before and after DVS a match was observed.

Series [3] in a line: Forced degradation trial by HPLC-UV. The format is physicochemical. The note with it: oxidized sample, 3% hydrogen peroxide added; T=0, 4 and 18 hours; only condition of acid, base, control, heat, oxidation with degradation. The procedure: For evaluation of stability by HPLC-UV, 200 μg/ml sample solution of anatabine and anatabine glutarate were prepared in duplicate by weighing approximately 10 mg and dissolving in 50 ml volumetric flask and bringing to the volume with deionized water. During the HPLC method optimization the run time and gradient have been adjusted for stability analysis. After the method optimization, a forced degradation trial was run to aid the planned stability assessment analysis by identifying any degradants or impurities present in the anatabine glutarate sample. The forced degradation trial analyzed samples under five conditions—acid, base, control, heat and oxidation—and were tested at T=0, 4 and 18 hours.

The nature of series [4]: Ambient stability assessment, open Petri dish, 7 days. The format is physicochemical. The note with it: ambient conditions, open in a fume hood, T=0, 3 and 7 days. The procedure:
For ambient stability assessment, anatabine glutarate (100 mg) was weighed into a clear glass Petri dish and retained at ambient conditions, open in a fume hood for 7 days. The stored sample was visually assessed at T=0, 3 and 7 days. No change in the color or any evidence of deliquescence were observed (FIG. 12).

A further series relates to STAT3 and NFkB signaling. The note with it: periphery and CNS, via regulation of STAT3 and NFkB signaling; cited from earlier work.
For series [5] the following is noted: in vivo; cited from earlier work.
The next series deals with nuclear factor κB (NFKB). Conditions: cited from earlier work.
Series [6] in a line: Hygroscopicity of comparative anatabine salts (handling observation). The format is physicochemical. On the procedure:
Anatabine free base (160 mg, 1 mmol) was dissolved in anhydrous acetone (2.5 ml). To the formed solution was added a solution of anhydrous citric acid (192 mg, 1 mmol) in anhydrous acetone (3 ml, required sonication) with stirring under nitrogen. The mixture was stirred for 2 hours and then filtered under a blanket of nitrogen. The solid was washed with a small quantity of anhydrous acetone and dried in vacuo. A yield of 340 mg (96.6%) of anatabine citrate was achieved. […] Chemical structure and stoichiometry was confirmed by proton NMR. The solid form of the citrate contains captured acetone.

Setting [7] is: stored at 40° C./75% RH for 7 days.

Where two headings read alike, the source gives them in different places.

For `C1=CCC(c2cccnc2)NC1` (centres unmarked) [anatabine glutarate, 3-(1,2,3,6-tetrahydropyridin-2-yl)pyridine glutarate], the “visual assessment: color or evidence of deliquescence” value is recorded as “no change observed” in series [1] (40° C./75% RH, glass vial with screw cap, T=0, 3 and 7 days); “No change” in series [4]. In series [1] (T=7 days sample, 40° C./75% RH), the “TGA mass loss between 20-130° C.” value was 0.5%. Besides, the “TGA mass loss between 150° C. and 400° C.” value in series [1] (T=7 days sample, 40° C./75% RH) came to 80%. In series [1] (accelerated conditions (40° C./75% RH) after 7 days), the evidence of degradation result is recorded as “has not shown evidence of degradation”. Besides, the “change in thermal stability” value in series [1] (setting [7]) is given as “no change in thermal stability”. Also, in series [1] (setting [7]), the “change to the crystalline form (XRPD)” value is “no change to the crystalline form”. Moreover, the “difference in TGA mass loss between T=0 and T=7 days” value in series [1] (superposition of thermograms, 40° C./75% RH) is given as 2%. Further, the “mass gain on first sorption cycle” value in series [2] (DVS 0-90% RH, first sorption cycle, majority of gain above 70% RH) is recorded as 55%. Besides, the “mass gain in second sorption cycle” value in series [2] (DVS 0-90% RH) is recorded as 50%; in series [2] (DVS 0-90% RH, listed as Anatabine glutarate), “about 50%”. The “mass gain between the starting weight and the end weight” value in series [2] is reported as 5%; in series [2] (listed as Anatabine glutarate), “about 5%”. In addition, the “mass loss on first desorption cycle” value in series [2] (DVS first desorption cycle) is “about 50%”. Moreover, in series [2] (DVS, end of first desorption), the “mass above the starting mass after first desorption” value turned out to be 5%. Besides, the “crystal form before and after DVS (XRPD comparison)” value in series [2] (sample left overnight after DVS, recrystallized into a solid form) was “identical”. Besides, the “degradation by peak area (HPLC-UV)” value in series [3] is greater than 1%.

Consider `C1=CCC(c2cccnc2)NC1` (centres unmarked) [anatabine, 3-[1,2,3,6-Tetrahydropyridin-2-yl]pyridine], for which, in the series on STAT3 and NFkB signaling, the anti-inflammatory activity entry was “has an anti-inflammatory activity”. In series [5], the “reversal of precipitated nicotine withdrawal” value is “does not reverse” and the “rewarding effect in rodents trained to self-administer nicotine” value is listed as “do not find anatabine to be rewarding”. Further, the “transcription mediated by nuclear factor κB (NFKB)” value in the series with nuclear factor κB (NFKB) is listed as “reduces transcription”.

For anatabine citrate, the hygroscopicity result in series [6] is on record as “extremely hygroscopic”; in series [6] (listed as citrate), “highly hygroscopic”.
